Target: T1, apelin receptor (APJ) (Homo sapiens, UniProt P35414)
T1 sequence (P35414 1-380): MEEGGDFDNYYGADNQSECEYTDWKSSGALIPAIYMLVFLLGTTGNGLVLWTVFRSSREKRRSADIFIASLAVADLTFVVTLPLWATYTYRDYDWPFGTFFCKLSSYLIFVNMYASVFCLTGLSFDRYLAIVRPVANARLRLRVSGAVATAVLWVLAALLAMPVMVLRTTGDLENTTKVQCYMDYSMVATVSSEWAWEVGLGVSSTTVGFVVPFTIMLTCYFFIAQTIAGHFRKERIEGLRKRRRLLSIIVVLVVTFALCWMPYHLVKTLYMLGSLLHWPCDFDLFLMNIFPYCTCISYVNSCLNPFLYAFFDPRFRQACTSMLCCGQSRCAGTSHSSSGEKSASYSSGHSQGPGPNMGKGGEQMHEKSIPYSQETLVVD
Experiment: In vitro apelin agonist activity (methods of Giddings et al., Apelin-13 as positive control)
Type: cell-based
Conditions: in vitro apelin agonist activity, methods of Giddings et al., Apelin-13 as positive control; read-out: EC50 (nM) Ave
Excerpt: Characterization of the Apelin Agonist Activity of the Compounds
1:39-47, the contents of which are hereby incorporated by reference in its entirety. Using the methods described in Giddings et al. and Apelin-13 as a positive control.

| EC50 | Structure (SMILES) |
| --- | --- |
| 130 nM | O=C(O)C[C@H](CCN1CCCC(F)(F)C1)NC(=O)c1cc(-c2ccccc2C(F)(F)F)n(CC2CCC2)n1 [compound 571, (3S)-3-{[1-(cyclobutylmethyl)-5-[2-(trifluoromethyl)phenyl]-1H-pyrazol-3-yl}formamido}-5-(3,3-difluoropiperidin-1-yl)pentanoic acid] |
| 1230 nM | O=C(O)C[C@H](COc1ccc(F)cc1)NC(=O)c1cc(-c2ccccc2C(F)(F)F)n(C2CCCC2)n1 [compound 545, (3R)-3-({1-cyclopentyl-5-[2-(trifluoromethyl)phenyl]-1H-pyrazol-3-yl}formamido)-4-(4-fluorophenoxy)butanoic acid] |
| > 10000 nM | COc1cccc(OC)c1-c1cc(C(=O)N[C@@H](CCc2ccccc2)C(=O)Nc2nccs2)nn1C1CCCC1 [compound 396, (2S)-2-{[1-cyclopentyl-5-(2,6-dimethoxyphenyl)-1H-pyrazol-3-yl]formamido}-4-phenyl-N-(1,3-thiazol-2-yl)butanamide] |
| 1240 nM | O=C(O)C[C@H](CCc1ccc(F)cc1)NC(=O)c1cc(-c2ccccc2C(F)(F)F)n(C2CCCC2)n1 [compound 463] |
| 2370 nM | CCN(C(=O)c1cc(-c2ccccc2OC(F)(F)F)n(C2CCCC2)n1)[C@@H](CCN1CCCCC1)CC(=O)NC1CCC1 [compound 344, (3S)-N-cyclobutyl-3-(1-{1-cyclopentyl-5-[2-(trifluoromethoxy)phenyl]-1H-pyrazol-3-yl}-N-ethylformamido)-5-(piperidin-1-yl)pentanamide] |
| 79 nM | CC(F)(F)c1ccccc1-c1cc(C(=O)N[C@@H](CCN2CCC[C@@H](F)C2)CC(=O)O)nn1C1CCCC1 [compound 593, (3S)-3-({1-cyclopentyl-5-[2-(1,1-difluoroethyl)phenyl]-1H-pyrazol-3-yl}formamido)-5-[(3R)-3-fluoropiperidin-1-yl]pentanoic acid] |
| 78 nM | O=C(O)C[C@H](CCN1CCC(C(F)(F)F)C1)NC(=O)c1cc(-c2ccccc2C(F)(F)F)n(C2CCCC2)n1 (stereo partly drawn) [compound 578, (3S)-3-({1-cyclopentyl-5-[2-(trifluoromethyl)phenyl]-1H-pyrazol-3-yl}formamido)-5-[3-(trifluoromethyl)pyrrolidin-1-yl]pentanoic acid] |
| 931 nM | O=C(O)C[C@H](CCN1CCOCC1)NC(=O)c1cc(-c2ccccc2C(F)(F)F)n(C2CCCC2)n1 [compound 486, (3S)-3-({1-cyclopentyl-5-[2-(trifluoromethyl)phenyl]-1H-pyrazol-3-yl}formamido)-5-(morpholin-4-yl)pentanoic acid] |
| 292 nM | COc1cccc(OC)c1-c1cc(C(=O)N[C@@H](/C=C/c2ccc(F)cc2)CC(=O)NC2CCC2)nn1C1CCCC1 [compound 415, (3R,4E)-N-cyclobutyl-3-{[1-cyclopentyl-5-(2,6-dimethoxyphenyl)-1H-pyrazol-3-yl]formamido}-5-(4-fluorophenyl)pent-4-enamide] |
| > 10000 nM | CC(C)C[C@@H](CC(=O)NCc1ccccc1)NC(=O)c1cc(-c2ccccc2C(F)(F)F)n(C2CCCC2)n1 [compound 441, (3S)-N-benzyl-3-({1-cyclopentyl-5-[2-(trifluoromethyl)phenyl]-1H-pyrazol-3-yl}formamido)-5-methylhexanamide] |
| 261 nM | CC1(C)CCCCN1CC[C@@H](CC(=O)NC1CCC1)NC(=O)c1cc(-c2ccccc2C(F)(F)F)n(C2CCCC2)n1 [compound 517, (3S)-N-cyclobutyl-3-({1-cyclopentyl-5-[2-(trifluoromethyl)phenyl]-1H-pyrazol-3-yl}formamido)-5-(2,2-dimethylpiperidin-1-yl)pentanamide] |
| 277 nM | O=C(O)C[C@H](CCN1CCCC[C@H]1C(F)(F)F)NC(=O)c1cc(-c2ccccc2C(F)(F)F)n(C2CCCC2)n1 [compound 487, (3S)-3-({1-cyclopentyl-5-[2-(trifluoromethyl)phenyl]-1H-pyrazol-3-yl}formamido)-5-[(2S)-2-(trifluoromethyl)piperidin-1-yl]pentanoic acid] |

Source: patent US11535630B2, “Apelin receptor (APJ) agonists and uses thereof” (Research Triangle Institute, priority 2015, dated 2022)
